In article PMC7037546, “High Cell Selectivity and Bactericidal Mechanism of Symmetric Peptides Centered on D-Pro–Gly Pairs” (International Journal of Molecular Sciences, 2020):
No end group written: not given here.

Key:
HEK293T cells = test: Cytotoxicity, CCK-8 assay; format: cell-based, human; settings: 64 μM peptide, 16 h, CCK-8, OD 450 nm
Protocol: (§1) The cytotoxicity was detected according to a CCK-8 assay as described previously. Briefly, RAW 264.7 and HEK293T cells were placed into 96-well plates at a density of 1.0–2.0 × 10^5, and then cultured for 16 h under conditions of 5% CO2. Then, two-fold diluted peptides in DMEM were added to the plates. After 16 h of culturing, CCK-8 (10%, v/v) was put into each well containing cell culture, and mixtures were cultured for 2 h. The cytotoxicity assay was examined by measuring the OD of the mixtures at 450 nm (Microplate reader, TECAN GENios F129004, Tecan, Salzburg, Austria). The assays were performed three times.

[1] = system: Salmonella Pullorum NCTC5776; settings: NCTC5776, 16 h
Protocol: (§2) The antimicrobial activity of the designed peptides was examined using the micro-dilution method described previously. The bacteria were cultured for 16 h in MHB at 37 °C, and the microbial suspension was diluted to a final concentration of 10^5 colony-forming units (CFU)/mL. Then, 50 µL of MHB containing different concentrations peptides (0.25–256 µM) was mixed with 50 µL of bacterial solution, and the mixture was added to a 96-well plate. […] The assays were performed three times.

[2] = system: Enterococcus faecalis ATCC29212; settings: ATCC29212, 16 h
Protocol: as §2

[3] = system: methicillin-resistant S. aureus ATCC43300; settings: ATCC43300, 16 h
Protocol: as §2

Gram-negative bacteria = settings: 16 h
Protocol: as §2

[4] = system: Staphylococcus aureus ATCC25923; settings: ATCC25923, 16 h
Protocol: as §2

[5] = system: Pseudomonas aeruginosa ATCC27853; settings: ATCC27853, 16 h
Protocol: as §2

S. aureus ATCC29213 = settings: ATCC29213, 16 h
Protocol: as §2

E. coli K88 = settings: micro-dilution in MHB, 10^5 CFU/mL, 16 h, OD 492 nm, performed three times
Protocol: as §2

[6] = system: Klebsiella pneumonia CMCC46117; settings: CMCC46117, 16 h
Protocol: as §2

RAW 264.7 cells = test: Cytotoxicity, CCK-8 assay; format: cell-based, murine; settings: 64 μM peptide, 16 h, CCK-8, OD 450 nm
Protocol: as §1

Gram-positive bacteria = test: Geometric mean of MICs and therapeutic index, Gram (+); format: cell-based; settings: geometric mean over the Gram-positive strains of Table 2; 256 μM used when no activity at 128 μM
Protocol: as §2

E. coli ATCC25922 = format: cell-based, Escherichia coli; settings: for MIC after pH treatment, pH 4 / MIC after pH treatment, pH 6 / MIC after pH treatment, pH 8 / MIC after pH treatment, pH 10: ATCC25922, 1 h; for MIC after temperature treatment, 0 °C / MIC after temperature treatment, 37 °C / MIC after temperature treatment, 100 °C / MIC in the presence of FeCl3 / MIC in the presence of KCl / MIC in the presence of MgCl2 / MIC in the presence of NH4Cl / MIC in the presence of NaCl / MIC in the presence of ZnCl2 / MIC, Control / MIC, Control (pH 7): ATCC25922, 16 h
Protocol: as §2
The salt, temperature, and pH sensitivities of designed peptides were determined by MIC assay as described previously. For the salt sensitivity assay, peptides were diluted in deionized water containing different salts, and mixed with E. coli ATCC25922 (10^5 CFU/mL). The final physiological concentrations of different salts were as follows: 150 mM NaCl, 4.5 mM KCl, 6 μM NH4Cl, 1 mM MgCl2, 8 μM ZnCl2, and 4 μM FeCl3. For temperature sensitivity, peptides were cooled on ice for 10 min, and incubated at 37 °C and 100 °C for 30 min. For pH sensitivity, peptides were treated with different pH for 1 h. Briefly, peptides were diluted in deionized water, and the pH of the solution was adjusted to 4.0, 6.0, 8.0, and 10.0 with HCl or NaOH. The subsequent steps were the same as for the MIC measurements. These tests were performed three times.

[7] = system: Escherichia coli ATCC25922; test: microbe, parasite or virus in culture; settings: ATCC25922, 16 h
Protocol: as §2

| Substance | cell survival rate (HEK293T cells) | MIC [1] | MIC [2] | MIC [3] | GM (geometric mean of MICs), Gram (−) (Gram-negative bacteria) | MIC [4] | MIC [5] | MIC (S. aureus ATCC29213) | MIC (E. coli K88) | MIC [6] | cell survival rate (RAW 264.7 cells) | GM (geometric mean of MICs), Gram (+) (Gram-positive bacteria) | MIC after pH treatment, pH 4 (E. coli ATCC25922) | MIC after pH treatment, pH 6 (E. coli ATCC25922) | MIC after pH treatment, pH 8 (E. coli ATCC25922) | MIC after pH treatment, pH 10 (E. coli ATCC25922) | MIC after temperature treatment, 0 °C (E. coli ATCC25922) | MIC after temperature treatment, 37 °C (E. coli ATCC25922) | MIC after temperature treatment, 100 °C (E. coli ATCC25922) | MIC in the presence of FeCl3 (E. coli ATCC25922) | further results |
| --- | --- | --- | --- | --- | --- | --- | --- | --- | --- | --- | --- | --- | --- | --- | --- | --- | --- | --- | --- | --- | --- |
| FFRFFRRGGRRFFRFF-NH2 [FRGG] | 76% | 16 µM | 32 µM | 32 µM | 16 µM | 32 µM | 32 µM | 16 µM | 16 µM | 16 µM | 66% | 26.9 µM | 32 µM | 8 µM | 8 µM | 32 µM | 8 µM | 8 µM | 8 µM | 8 µM | MIC in the presence of KCl (E. coli ATCC25922): 8 µM; MIC in the presence of MgCl2 (E. coli ATCC25922): 16 µM; MIC in the presence of NH4Cl (E. coli ATCC25922): 8 µM; MIC in the presence of NaCl (E. coli ATCC25922): 64 µM; MIC in the presence of ZnCl2 (E. coli ATCC25922): 16 µM; MIC, Control (E. coli ATCC25922): 8 µM; MIC, Control (pH 7) (E. coli ATCC25922): 8 µM; MIC [7]: 8 µM |
| IIRIIRRGGRRIIRII-NH2 [IRGG] | 96% | 32 µM | >128 µM | >128 µM | 21.1 µM | >128 µM | 32 µM | >128 µM | 16 µM | 32 µM | 95% | 256 µM | 16 µM | 8 µM | 8 µM | 16 µM | 8 µM | 8 µM | 8 µM | 8 µM | MIC in the presence of KCl (E. coli ATCC25922): 8 µM; MIC in the presence of MgCl2 (E. coli ATCC25922): 16 µM; MIC in the presence of NH4Cl (E. coli ATCC25922): 8 µM; MIC in the presence of NaCl (E. coli ATCC25922): 64 µM; MIC in the presence of ZnCl2 (E. coli ATCC25922): 16 µM; MIC, Control (E. coli ATCC25922): 8 µM; MIC, Control (pH 7) (E. coli ATCC25922): 8 µM; MIC [7]: 8 µM |
